Laboratory results as given in patent US11395854B2, “Trialkyl cationic lipids and methods of use thereof” (ARBUTUS BIOPHARMA CORPORATION, priority 2012, dated 2022).

Columns and labels:
[1] = system: ApoB expression in the livers (Liver ApoB:GAPD mRNA ratio); experiment: murine ApoB siRNA activity model: ApoB knockdown in liver by nucleic acid-lipid particles containing the cationic lipid; assay type: in vivo, female BALB/c mice
Protocol: This Example compares the effectiveness, in a murine ApoB siRNA activity model, of short chain trialkyl lipids of the present invention with lipids having longer alkyl chains but which are otherwise structurally identical to the short chain trialkyl lipids.
Nucleic acid-lipid particle formulations containing cationic lipids were assessed for their ability to knockdown ApoB expression in the livers of 7 to 9 week old female BALB/c mice. Mice were dosed intravenously (tail vein) in groups of three at either 0.02, 0.03 or 0.05 mg/kg. ApoB knockdown (normalized to the housekeeping gene GAPDH) was measured relative to PBS as a negative control. Each experiment was terminated at 48 hours after dosing.
For comparison to a positive control, the performance of short chain trialkyl lipids of the present invention was compared to a potent cationic lipid, referred to as C2K, that is known to facilitate nucleic acid delivery, in vivo, in nucleic acid-lipid particles (Nature Biotech., Vol 28(2),172 (2010)).

[2] = system: ApoB (normalized to the housekeeping gene GAPDH), liver; experiment: murine ApoB model with a different, less potent siRNA sequence; liver ApoB silencing via Quantigene Assay; assay type: in vivo, Mice; conditions: 0.04 mg/kg siRNA; for ApoB gene silencing relative to PBS control (Liver ApoB:GAPD mRNA ratio): intravenous (tail vein), 48 h after dosing, different, less potent siRNA sequence
Protocol: In another experiment, two more lipids of the present invention (Compounds 62 and 71) were formulated into lipid nanoparticles with siRNA to target ApoB. Mice were dosed intravenously (tail vein) and sacrificed 48 h after dosing. Livers were harvested and homogenized, and the level of ApoB silencing (normalized to the housekeeping gene GAPDH) then measured via Quantigene Assay. The results are shown in Table 6 and are expressed as a percentage, relative to a PBS-treated negative control group. […] Inter-experiment comparisons are therefore not possible: […]

[3] = injected dose of 0.03 mg/kg, separate experiment

CCCCC/C=C\CCCC(CCC/C=C\CCCCC)C(CCC/C=C\CCCCC)OC(=O)N(C)CCCN(C)C (centres unmarked) [Compound 23, (6Z,16Z)-12-((Z)-dec-4-enyl)docosa-6,16-dien-11-yl 3-(dimethylamino)propyl(methyl)carbamate]
activity compared to C2K [1, 3]: greater activity than C2K

CCCCC/C=C\CCCC(CCC/C=C\CCCCC)C(CCC/C=C\CCCCC)OCCCCN(C)C (centres unmarked) [Compound 62, 4-(((6Z,16Z)-12-((Z)-dec-4-en-1-yl)docosa-6,16-dien-11-yl)oxy)-N,N-dimethylbutan-1-amine]
activity compared to the DLin-MP-DMA control [2]: significantly more active | ApoB gene silencing relative to PBS control (Liver ApoB:GAPD mRNA ratio) [2]: −56%

CCCCC/C=C\CCCC(CCC/C=C\CCCCC)C(CC/C=C\CCCCC)OC(=O)CCCN(C)C (centres unmarked) [Compound 22, (6Z,15Z)-11-((Z)-dec-4-enyl)henicosa-6,15-dien-10-yl 4-(dimethylamino)butanoate]
activity compared to C2K ([1]; injected dose of 0.02 mg/kg): greater activity than C2K

CCCCC/C=C\CCCC(CCC/C=C\CCCCC)C(CCC/C=C\CCCCC)OC(=O)CCCCN(C)C (centres unmarked) [Compound 13, (6Z,16Z)-12-((Z)-dec-4-enyl)docosa-6,16-dien-11-yl 5-(dimethylamino)pentanoate]
activity compared to C2K ([1]; injected dose of 0.02 mg/kg): greater activity than C2K | activity compared to C2K [1, 3]: greater activity than C2K

CCCCC/C=C\CCCC(CCC/C=C\CCCCC)C(CCC/C=C\CCCCC)OC(=O)CCCCCN(C)C (centres unmarked) [Compound 11, (6Z,16Z)-12-((Z)-dec-4-enyl)docosa-6,16-dien-11-yl 6-(dimethylamino)hexanoate]
activity compared to C2K [1, 3]: greater activity than C2K

CCCCC/C=C\CCCC(CCC/C=C\CCCCC)C(CCC/C=C\CCCCC)OC(=O)NCCN(C)C (centres unmarked) [Compound 25, (6Z,16Z)-12-((Z)-dec-4-enyl)docosa-6,16-dien-11-yl 2-(dimethylamino)ethylcarbamate]
activity compared to C2K [1, 3]: greater activity than C2K

CCCCC/C=C\CCCC(OC(=O)CCCCN(C)C)C(CCCCCCCCCC)CCCCCCCCCC (centres unmarked) [Compound 50, (Z)-12-decyldocos-6-en-11-yl 5-(dimethylamino)pentanoate]
activity compared to C2K ([1]; injected dose of 0.02 mg/kg): greater activity than C2K

CCCCC/C=C\CCCC(CCC/C=C\CCCCCC)C(CC/C=C\CCCCC)OC(=O)NCCCN(C)C (centres unmarked) [Compound 27, (6Z,15Z)-11-((Z)-dec-4-en-1-yl)docosa-6,15-dien-10-yl (3-(dimethylamino)propyl)carbamate]
activity compared to C2K ([1]; injected dose of 0.02 mg/kg): greater activity than C2K

CCCCC/C=C\C/C=C\CCCCCCCCC(CCCCCCCC/C=C\C/C=C\CCCCC)OCCCN(C)C [DLin-MP-DMA, reference compound]
effectiveness compared to C2K ([1]; three separate experiments, 0.03 or 0.05 mg/kg): more effective than C2K | ApoB gene silencing relative to PBS control (Liver ApoB:GAPD mRNA ratio) [2]: −32%

CCCCC/C=C\CCCC(CCC/C=C\CCCCC)C(CCC/C=C\CCCCC)OC(=O)CCCN(C)C (centres unmarked) [Compound 9]
activity compared to C2K ([1]; injected dose of 0.02 mg/kg): greater activity than C2K

CC(C)CCCC(C)CCC(CCC(C)CCCC(C)C)C(CCC(C)CCCC(C)C)OC(=O)CCCCN(C)C (centres unmarked) [Compound 71, 10-(3,7-dimethyloctyl)-2,6,13,17-tetramethyloctadecan-9-yl 5-(dimethylamino)pentanoate]
ApoB gene silencing relative to PBS control (Liver ApoB:GAPD mRNA ratio) [2]: −29%

CCCCC/C=C\CCCC(CCC/C=C\CCCCC)C(CC/C=C\CCCCC)OC(=O)CCCCN(C)C (centres unmarked) [Compound 19, (6Z,15Z)-11-((Z)-dec-4-enyl)henicosa-6,15-dien-10-yl 5-(dimethylamino)pentanoate]
activity compared to C2K ([1]; injected dose of 0.02 mg/kg): greater activity than C2K | activity compared to C2K [1, 3]: greater activity than C2K

CCCCC/C=C\CCC(CC/C=C\CCCCC)C(CC/C=C\CCCCC)OC(=O)CCCN(C)C (centres unmarked) [Compound 40]
activity compared to C2K ([1]; injected dose of 0.02 mg/kg): greater activity than C2K
